Results reported in the NIST ThermoML archive (doi:10.1016/j.jct.2017.07.013).

Experiment: refractive index (Na D-line) (dimensionless); xn = mol fraction of the nth substance listed
Conditions: 101.3 kPa, Liquid, Standard Abbe refractometry

CCCC[n+]1ccn(C)c1.O=S(=O)([N-]S(=O)(=O)C(F)(F)F)C(F)(F)F + COC(=O)OC
refractive index
Conditions | 303.15 K | 308.15 K | 313.15 K | 318.15 K | 323.15 K
x1 = 0.0512 | 1.3757 | 1.3741 | 1.3744 | 1.3724 | 1.3719
x1 = 0.101 | 1.3844 | 1.383 | 1.3836 | 1.3819 | 1.3817
x1 = 0.1495 | 1.3913 | 1.39 | 1.3907 | 1.3892 | 1.3893
x1 = 0.1945 | 1.3965 | 1.3953 | 1.3959 | 1.3946 | 1.3948
x1 = 0.2994 | 1.4053 | 1.4042 | 1.4042 | 1.403 | 1.4033
x1 = 0.3999 | 1.4106 | 1.4095 | 1.4089 | 1.4077 | 1.4078
x1 = 0.4976 | 1.4141 | 1.4131 | 1.4119 | 1.4107 | 1.4106
x1 = 0.5842 | 1.4165 | 1.4155 | 1.414 | 1.4128 | 1.4126
x1 = 0.6886 | 1.4191 | 1.4181 | 1.4166 | 1.4154 | 1.4149
x1 = 0.7475 | 1.4204 | 1.4195 | 1.418 | 1.4168 | 1.4162
x1 = 0.8014 | 1.4216 | 1.4207 | 1.4193 | 1.4181 | 1.4172
x1 = 0.889 | 1.4233 | 1.4223 | 1.4208 | 1.4196 | 1.4185
x1 = 0.9526 | 1.4242 | 1.423 | 1.4213 | 1.4199 | 1.4183
x1 = 1 | 1.4245 | 1.4231 | 1.421 | 1.4195 | 1.4173
